Assay results as given in paper PMC5781229 (Analytical biochemistry, 2017).

Target: TET2 (Homo sapiens, UniProt Q6N021, DEL1481-1843)

O=C(O)CCC(=O)C(=O)O [compound 1, 2KG]
Km: 15.7 µM
